Reference: patent US4647562A, “Anti-spasmodic agents having three branch chains” (United Pharmaceuticals, Inc., priority 1985, dated 1987)
Where a name gives a salt, the structure may show the parent alone. Read-outs that look alike come from different tables or passages of the source.

Legend:
smooth muscle = conditions: prior knowledge on thiphenamil hydrochloride; cited from earlier work
muscarinic receptors = type: binding, rabbit (New Zealand White); conditions: 1.0 × 10^-5 M compound; 0.1 nM [^3 H]QNB; 37° C., 60 minutes; pH 7.4
[1] = tested on: rabbit urinary bladder strip; assay: Relaxation of bethanechol-contracted rabbit urinary bladder strip preparation; conditions: for inhibition at 100 µM / inhibition at 10 µM / inhibition at 1 µM / inhibition at 0.1 µM / inhibition at 0.01 µM: Oryctolagus cuniculus
Method: The pharmacological actions of three anti-spasmodic compounds were studied in a rabbit urinary bladder strip preparation. In general, longitudinal strips were prepared from the base of freshly isolated rabbit bladders and were then suspended under near-physiological conditions in tissue baths. The strips were attached to force transducers and both contractile and relaxant activity was measured. To measure the relaxant effects on the anti-spasmodic compounds on previously-contracted bladder strips, the strips were initially exposed to the muscarinic receptor agonist bethanechol and allowed to reach a steady level of contractile activity for 20 minutes. At this point cumulative dose-responses to the various compounds were recorded. The rabbit abdomens were opened through a vertical midline incision. […] Tissues were allowed to equilibrate to a tension of 2 gm for sixty minutes during which time buffer was replaced at 20 minute intervals. […] Bethanechol was employed as the representative cholinergic agonist and, following equilibration, was added to the baths for a final concentration of 250 μM. The tissues were allowed 20 minutes to achieve a maintained level of contraction in response to bethanechol and, at this point, cumulative dose-response measurements for three anti-spasmodic compounds were started at concentrations ranging from 10^-8 M to 10^-4 M. Solutions were added in volumes up to 100 μl and were prepared fresh each day by dissolving them in distilled:deionzed water. […]

[2] = 10^-4 moles/liter, bethanechol 250 μM
[3] = 10^-5 moles/liter, bethanechol 250 μM
[4] = 10^-6 moles/liter, bethanechol 250 μM
[5] = 10^-7 moles/liter, bethanechol 250 μM
[6] = 10^-8 moles/liter, bethanechol 250 μM
[7] = pH 7.4, read-out: % of maximum relaxation
[8] = read-out: % background relaxation

Row | SMILES | % inhibition of ^3 H[QNB] binding (muscarinic receptors) [%] | Decrease in force of contraction of rabbit bladder strip [1, 2] [gm] | Increase in length of rabbit bladder strip [1, 2] [cm] | Decrease in force of contraction of rabbit bladder strip [1, 3] [gm] | Increase in length of rabbit bladder strip [1, 3] [cm] | Decrease in force of contraction of rabbit bladder strip [1, 4] [gm] | Increase in length of rabbit bladder strip [1, 4] [cm] | Decrease in force of contraction of rabbit bladder strip [1, 5] [gm] | Increase in length of rabbit bladder strip [1, 5] [cm] | Decrease in force of contraction of rabbit bladder strip [1, 6] [gm] | Increase in length of rabbit bladder strip [1, 6] [cm] | further results
1 | CCN(CC)CCSC(=O)C(c1ccccc1)c1ccccc1 [Thiphenamil hydrochloride] |  |  |  |  |  |  |  |  |  |  |  | atropinic side effects (smooth muscle): without producing characteristic atropinic side effects on salivary and sweat glands, GI glands, the eye or the cardiovascular system; decrease spasm (smooth muscle): decrease spasm of the gastrointestinal tract, biliary tract, ureter and uterus
2 | CCN(CC)CCSC(=O)CC(C)(C)C [t-butyl-acetyl-thio-S-(2-diethylaminoethyl)-ester.HCl] | 76 | 1.08 | 3.9 | 0.22 | 0.6 | 0.03 | 0.1 | 0.00 | 0.0 | 0.03 | 0.1 | inhibition at 100 µM ([1]; pH 7.4, 10^-4 moles/liter, bethanechol 250 μM, maximal = pre-bethanechol baseline, read-out: % of maximum relaxation): 98%; inhibition at 10 µM ([1]; pH 7.4, 10^-5 moles/liter, bethanechol 250 μM, maximal = pre-bethanechol baseline, read-out: % of maximum relaxation): 15%; inhibition at 1 µM ([1]; pH 7.4, 10^-6 moles/liter, bethanechol 250 μM, maximal = pre-bethanechol baseline, read-out: % of maximum relaxation): 2.5%; inhibition at 0.1 µM ([1]; pH 7.4, 10^-7 moles/liter, bethanechol 250 μM, maximal = pre-bethanechol baseline, read-out: % of maximum relaxation): 0%; inhibition at 0.01 µM ([1]; pH 7.4, 10^-8 moles/liter, bethanechol 250 μM, maximal = pre-bethanechol baseline, read-out: % of maximum relaxation): 2.5%; inhibition at 100 µM ([1]; 10^-4 moles/liter, bethanechol 250 μM, read-out: % background relaxation): 80%; inhibition at 10 µM ([1]; 10^-5 moles/liter, bethanechol 250 μM, read-out: % background relaxation): 1.3%; inhibition at 1 µM ([1]; 10^-6 moles/liter, bethanechol 250 μM, read-out: % background relaxation): 0%; inhibition at 0.1 µM ([1]; 10^-7 moles/liter, bethanechol 250 μM, read-out: % background relaxation): 0%; inhibition at 0.01 µM ([1]; 10^-8 moles/liter, bethanechol 250 μM, read-out: % background relaxation): 0%
3 | CCN(CC)CCSC(=O)C(C)(C)C [trimethylacetyl-thio-S-(2-diethylaminoethyl)-ester.HCl] | 66 | 0.82 | 4.1 | 0.40 | 2.0 | 0.38 | 1.9 | 0.38 | 1.9 | 0.00 | 0.0 | inhibition at 0.01 µM [1, 7]: 0%; inhibition at 0.1 µM [1, 7]: 16.5%; inhibition at 1 µM [1, 7]: 16.5%; inhibition at 10 µM [1, 7]: 16.5%; inhibition at 100 µM [1, 7]: 35.7%; inhibition at 0.01 µM [1, 8]: 0%; inhibition at 0.1 µM [1, 8]: 14.1%; inhibition at 1 µM [1, 8]: 14.1%; inhibition at 10 µM [1, 8]: 14.1%; inhibition at 100 µM [1, 8]: 29.7%
